Consider two compounds from patent publication US20100317689A1, “Prodrugs of proton pump inhibitors including the 1h-imidazo[4,5-b] pyridine moiety” (priority 2006, published 2010).

As usually defined, the half-life is how long it takes for the measured level to halve. Higher therefore signals slow loss.

The nature of data set [1]: Stability in human plasma. It counts as in vitro ADME. Here is the method: (§1) Exemplary test compounds (prodrugs) of the invention can be incubated in plasma at 37° C. to test their stability and hydrolysis to give the corresponding drug TENATOPRAZOLE. The concentration of the compounds and also of the corresponding proton pump inhibitor TENATOPRAZOLE can be determined by a gradient HPLC-UV method. Although the half-lives of test compounds in plasma is expected to vary depending on their specific structure, nevertheless it is expected that in plasma the compounds of the invention are converted into the corresponding proton pump inhibitor TENATOPRAZOLE at a rate faster than the hydrolysis rate of the compound at neutral or near neutral pH. […] Therefore the compounds of the invention and especially the preferred compounds which have the chemical structure shown in Formulas 4 and 5 are good candidates to be used as prodrugs in intravenous injection and are expected to release the active proton pump inhibitor in vivo.

Data set [2] in a line: Plasma concentration of tenatoprazole after oral dosing in rats. The data set is classed as in vivo, rat.
Data set [3] is described as follows: Stability at physiological pH 7.4 without plasma or blood. The data set is classed as physicochemical. Here is the method:
as §1

Data set [4] in a line: Stability in rat plasma at 37° C., hydrolysis to tenatoprazole. It counts as in vitro ADME. How it is done: as §1
In data set [5] the test system is histamine and carbachol-stimulated gastric acid secretion. As to the kind of experiment: Inhibition of gastric acid secretion of the conscious male rat, oral administration. It counts as in vivo. As to conditions: 40 μmole/kg, pylorus ligated 3 hours after administration, gastric juice collected two hours later. Here is the method: Male rats (the Sprague-Dawley strain) are used in this assay. Salts of known benzimidazole type proton pump inhibitors, such as OMEPRAZOLE sodium salt, LANSOPRAZOLE sodium salt or TENATOPRAZOLE sodium salt (20 mg) is suspended in 10 ml of 0.1 N NaHCO3. 70 mg of each of the sodium salts of the compounds of the present invention are dissolved in 6 ml of 50% DMSO-50% 50 mM sodium phosphate buffer, pH 7.4. The doses administered to the rats are as follows (μmole per kg body weight of the rat): TENATOPRAZOLE (40 μmole/kg), a mixture of sodium 2-(4-(5-methoxy-2-((4-methoxy-3,5-dimethylpyridin-2-yl)methylsulfinyl)-1H-imidazo[4,5-b]pyridin-1-ylsulfonyl)phenoxy)acetate (Compound 1) and sodium 2-(4-(5-methoxy-2-((4-methoxy-3,5-dimethylpyridin-2-yl)methylsulfinyl)-3H-imidazo[4,5-b]pyridin-3-ylsulfonyl)phenoxy)acetate (1:1 of the isomeric mixture) 20 μmole/kg, and 40 μmole/kg. These drug solutions are orally administered. 3 hours after administration the abdomen of the rat is incised and the pylorus is ligated under light ether anethesia. […] The gastric juice is collected and acid output is quantified by titration using 0.1 N NaOH solution. […] Acid output is quantified by same method as described above, showing maximum histamine and carbachol-stimulated gastric acid secretion. Percentage inhibition is calculated from the fractional responses elicited by the test compound and a control experiment.

Compound `COc1ccc2c(n1)nc([S+]([O-])Cc1ncc(C)c(OC)c1C)n2S(=O)(=O)c1ccc(OCC(=O)[O-])cc1.[Na+]` (stereo not drawn) [Compound 1, sodium 2-(4-(5-methoxy-2-((4-methoxy-3,5-dimethylpyridin-2-yl)methylsulfinyl)-1H-imidazo[4,5-b]pyridin-1-ylsulfonyl)phenoxy)acetate] registered a half-life in data set [1] of 1.35 min.
As to “sodium 2-(4-(5-methoxy-2-((4-methoxy-3,5-dimethylpyridin-2-yl)methylsulfinyl)-1H-imidazo[4,5-b]pyridin-1-ylsulfonyl)phenoxy)acetate (Compound 1) and sodium 2-(4-(5-methoxy-2-((4-methoxy-3,5-dimethylpyridin-2-yl)methylsulfinyl)-3H-imidazo[4,5-b]pyridin-3-ylsulfonyl)phenoxy)acetate [1:1 mixture of Compound 1 and its positional isomer]”, the “plasma concentration of tenatoprazole” value in data set [2] (male Sprague-Dawley rats, oral 40 μmole/kg, 5 h postdose) is 1940 ± 1685 ng/mL. Moreover, in data set [2] (rat, oral), the “plasma level and half-life of TENATOPRAZOLE compared with TENATOPRAZOLE itself” value is “maintains higher plasma level of TENATOPRAZOLE with longer plasma half-life”. Also, the “half-life in physiological pH 7.4 without the plasma or blood” value in data set [3] is reported as “greater than 24 hr”. Besides, in data set [4], the “half-life in rat plasma” value was found to be 1.2 min. Further, in data set [5], the “inhibition of gastric acid secretion” value came to 83.3±13.7%.
